Reference: PubChem BioAssay (NCI)
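1) Cells in 96-well plates. 2) Compound, 48 h, 5 concentrations. 3) Linear interpolation between surrounding doses. 4) Unreached endpoint = highest concentration. The concentration for 50% growth inhibition is given as GI50. TGI is the concentration that stops growth completely.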 Non-standard residues stand in square brackets, D forms with d. Residues, ends and D or L forms follow the SMILES beside them. *: point of attachment. ONb = O=[N+]([O-])c1ccc(CO*)cc1; AllylGly = C=CC[CH](N)C(=O)O; Boc = CC(C)(C)OC(=O)*

Legend:
Test in all cases: DTP human tumour cell line panel, 48 h
HCC-2998 colon = tested on: HCC-2998 colon
NCI-H23 lung = tested on: NCI-H23 lung
SNB-75 CNS = tested on: SNB-75 CNS
TK-10 renal = tested on: TK-10 renal
OVCAR-4 ovarian = tested on: OVCAR-4 ovarian
SK-MEL-5 melanoma = tested on: SK-MEL-5 melanoma
RPMI-8226 leukemia = tested on: RPMI-8226 leukemia
UO-31 renal = tested on: UO-31 renal
KM12 colon = tested on: KM12 colon
RXF 393 renal = tested on: RXF 393 renal

Structure (SMILES)	TGI (HCC-2998 colon)	TGI (NCI-H23 lung)	TGI (SNB-75 CNS)	TGI (TK-10 renal)	TGI (OVCAR-4 ovarian)	TGI (SK-MEL-5 melanoma)	TGI (RPMI-8226 leukemia)	TGI (UO-31 renal)	TGI (KM12 colon)	GI50 (RXF 393 renal)	TGI (RXF 393 renal)	GI50 (NCI-H23 lung)	GI50 (SNB-75 CNS)	GI50 (TK-10 renal)	GI50 (OVCAR-4 ovarian)	GI50 (SK-MEL-5 melanoma)	GI50 (RPMI-8226 leukemia)	GI50 (UO-31 renal)	GI50 (KM12 colon)	GI50 (HCC-2998 colon)
Nn1c(-c2ccccc2)nc2ccc(Br)cc2c1=O	> 100 µM	> 100 µM	> 100 µM	> 100 µM	86.7 µM	> 100 µM	> 100 µM	> 100 µM	> 100 µM	–	–	–	–	–	–	–	–	–	–	–
C=C1C(=O)O[C@H]2[C@H]1CC/C(Cn1cc(CNC(=O)Cc3cn(C(=O)c4ccc(Cl)cc4)c4ccc(OC)cc34)nn1)=C\CC[C@@]1(C)O[C@@H]21	–	6.7 µM	4.02 µM	3.24 µM	3.02 µM	3.28 µM	5.21 µM	3.05 µM	7.23 µM	1.25 µM	2.59 µM	2.58 µM	1.54 µM	1.77 µM	1.44 µM	1.77 µM	1.59 µM	1.53 µM	2.78 µM	–
COc1ccc2cc(C(=O)/C=C/c3cc(OC)c(OC)c(OC)c3)ccc2c1	–	11.2 µM	39.3 µM	31.4 µM	> 50 µM	1.01 µM	> 50 µM	15.5 µM	35.7 µM	–	–	1.77 µM	11.8 µM	9.61 µM	2.82 µM	0.0737 µM	6.84 µM	7.44 µM	2.3 µM	–
O=C(O)CSc1n[nH]c(-c2ccc(O)cc2)n1	> 100 µM	> 100 µM	> 100 µM	> 100 µM	> 100 µM	> 100 µM	> 100 µM	> 100 µM	> 100 µM	–	–	–	–	–	–	–	–	–	–	–
COc1ccc(-c2nc3sc(C)cn3c2/C=C/C(=O)c2cc(OC)c(OC)c(OC)c2)cc1	7.66 µM	–	> 100 µM	> 100 µM	> 100 µM	2.91 µM	–	7.61 µM	6.39 µM	–	–	–	4.09 µM	5.55 µM	3.15 µM	1.51 µM	–	2.27 µM	2.69 µM	3.71 µM
COc1cc(OC)c([C@@H]2OC(=O)C3C2C(=O)O[C@H]3c2cc(OC)c(OC)cc2OC)cc1OC (stereo partly specified)	> 100 µM	> 100 µM	> 100 µM	–	> 100 µM	–	> 100 µM	> 100 µM	> 100 µM	–	> 100 µM	–	–	–	–	–	–	–	–	–
CCOC(=O)[C@@]1(C)C=C2O[C@@H]3OC4(CCCCC4)O[C@@H]3C2=C2C(O)=CC=C(O)[C@]21C(=O)OC	> 68 µM	> 68 µM	> 68 µM	> 68 µM	> 68 µM	> 68 µM	> 68 µM	> 68 µM	> 68 µM	–	–	–	–	–	–	–	–	–	–	–
Cn1c2c(c3ccccc31)CCN(CCCCN1CCc3c(n(C)c4ccccc34)C1=O)C2	–	> 100 µM	> 100 µM	> 100 µM	> 100 µM	> 100 µM	> 100 µM	> 100 µM	–	–	> 100 µM	–	–	–	–	–	–	–	–	–
CNC(P(=O)([O-])[O-])P(=O)([O-])[O-].N.N.[Pt+2]	> 100 µM	> 100 µM	> 100 µM	> 100 µM	> 100 µM	–	–	> 100 µM	–	> 100 µM	> 100 µM	> 100 µM	> 100 µM	> 100 µM	> 100 µM	–	–	> 100 µM	–	> 100 µM
O=C1C(=O)N(C(=O)c2ccc(Cl)c(Cl)c2)c2ccccc21	–	> 100 µM	> 100 µM	> 100 µM	> 100 µM	> 100 µM	> 100 µM	> 100 µM	> 100 µM	–	> 100 µM	–	–	–	–	–	–	–	–	–
O=c1oc2cc(OS(=O)(=O)c3ccc(F)cc3)ccc2c2c1CCCCC2	> 100 µM	> 100 µM	> 100 µM	> 100 µM	> 100 µM	> 100 µM	> 100 µM	> 100 µM	–	–	–	> 100 µM	19.6 µM	> 100 µM	5.76 µM	5.69 µM	3.7 µM	> 100 µM	–	> 100 µM
COc1ccc(Cl)cc1Nc1nc(C(F)(F)F)ccc1C(=O)N/N=C/c1c(Cl)cccc1Cl	> 100 µM	> 100 µM	42.3 µM	50.8 µM	> 100 µM	–	–	–	–	17.9 µM	58.8 µM	38.5 µM	11.9 µM	6.32 µM	5.16 µM	–	–	–	–	5.37 µM
C=CCC(NC(=O)OC(C)(C)C)C(=O)NC(CCC(=O)OCc1ccc([N+](=O)[O-])cc1)C(N)=O (stereo unspecified) (Boc-[AllylGly]-Glu(ONb)-NH2; configuration not given here)	43.7 mg/L	91.8 mg/L	51.5 mg/L	–	–	–	77.6 mg/L	38.5 mg/L	–	–	–	29.6 mg/L	21.4 mg/L	34.3 mg/L	87.2 mg/L	–	26.7 mg/L	19.7 mg/L	–	19.2 mg/L
N#CCC1COc2ccccc2O1 (stereo unspecified)	> 10 µM	> 10 µM	> 10 µM	> 10 µM	> 10 µM	> 10 µM	> 10 µM	–	> 10 µM	–	–	–	–	–	–	–	–	–	–	–
COc1cc(-c2nn(-c3ccc(NC(=O)c4ccc(Cl)c(Cl)c4)cc3)cc2-c2ccncc2)ccc1Cl	> 100 µM	> 100 µM	> 100 µM	> 100 µM	> 100 µM	–	14.1 µM	9.85 µM	> 100 µM	1.5 µM	4.53 µM	38.4 µM	7.52 µM	> 100 µM	23.4 µM	–	3.03 µM	2.73 µM	5.97 µM	31.8 µM
CC(=O)O/C=C(/C=C/OC(C)=O)C(C/C=C(\C)C#CC=C(C)C)OC(C)=O (stereo unspecified)	> 100 µM	> 100 µM	–	> 100 µM	> 100 µM	> 100 µM	> 100 µM	> 100 µM	61.5 µM	–	–	–	–	–	–	–	–	–	–	–
COC(=O)N[C@H]1CCc2c(Br)c(OC)c(OC)c(OC)c2-c2ccc(SC)c(=O)cc21	11.5 µM	18.5 µM	20.9 µM	> 85.9 µM	> 57 µM	0.0182 µM	5.84 µM	19 µM	10.6 µM	–	–	< 0.01 µM	< 0.01 µM	9.63 µM	0.152 µM	< 0.01 µM	< 0.01 µM	< 0.0281 µM	< 0.01 µM	< 0.01 µM
